The test system of data set [1] is lens epithelial cell culture. The settings on record: range required for effective activity; cited from earlier work.
Data set [2] in a line: Degradation of H2O2 by microperoxidase (ferroammonium sulfate/thiocyanate H2O2 assay). In kind it is biochemical. As for the experimental part:
(FIG. 1A) Effect of cofactors on μPx-11 degradation of H2 O2. 300 μM hydrogen peroxide (H2 O2) was incubated with μPx-11 in 50 mM phosphate buffer, pH 7.0 at 25° C. in 1 ml. At indicated times, 50 μl aliquots were removed for H2 O2 assay as described in the Materials and Methods section. 50 mM phosphate buffer, pH 7.0 buffer+500 μM NADPH, buffer+1 mM ascorbate (Asc), buffer+3 μM (μPx-11), prior solution+500 μM NADPH, as the previous solution but with 1 mM Asc rather than NADPH. 20 μM μPx-11 in 50 mM phosphate buffer pH 7.0. The results represent the average±S.D. of 3 experiments in most cases.
(FIG. 1B) Stability of μPx-11 as measured by ability to degrade H2 O2. 300 μM H2 O2 in 2 ml of 50 mM phosphate buffer, pH. […] The levels of certain components (H2 O2, NADPH or Asc) were brought back to estimated starting concentrations based on prior experiments and the H2 O2 decay again measured. […]
(FIG. 1C) Concentration dependence of μPx-11 in the presence of Asc. […] The data is expressed as nmoles H2 O2 degraded per ml per minute per nmole μPx-11 in 1 ml. The initial H2 O2 degradation rate measured in the first minute is given. […]
H2 O2 was assayed by the method of Hildebrandt et al. (1978), as modified by Spector et al. (1993a) and is based on the oxidation of ferroammonium sulfate in the presence of potassium thiocyanate. […] Hydroxyl radical was determined as previously described (Spector et al., 1993a). […]

No end group written: not given here.

As to `CN(C)Cc1ccccc1[Se][Se]c1ccccc1CN(C)C` [2,2'diselenobis (N,N dimethylamino)methyl benzene], the toxicity entry in data set [1] was “toxic in the μM (micromolar) range”.

In the case of `O=c1c2ccccc2[se]n1-c1ccccc1` [Ebselen], the toxicity entry in data set [1] was “toxic in the μM (micromolar) range”.

On to “μPx-8: heme-peptide with the cytochrome C peptide segment containing residue 14 to 21 (CAQCHTVE; cysteine pairing not given here; also: heme-peptide, heme attachment not placed; UniProt P00004 15-22, looked up, fragment)”, for which the “effect of H2O2 on peroxidase” value in data set [2] (absence of Asc) is “inactivated”. Besides, the “ability to degrade H2O2 compared with μPx-11” value in data set [2] (presence of 1 mM Asc) is given as “more active than μPx-11”.
